Experimental data from US10590145B2, “Tetrahydrothiopyranopyrimidine derivatives as anti-HIV agent” (SHANDONG UNIVERSITY, priority 2016, dated 2020).
Like-named read-outs stand apart in the source and are kept apart here.

Legend:
Assay type in all cases: cell-based
[1] = test system: wide-type HIV-1 (strain IIIB); assay: Anti-HIV-1 activity in MT-4 cells (MTT method), wild-type
Protocol: (§1) Selected compounds were screened for inhibitory activity against HIV-1 using MTT method as describe previously by Christophe. Pannecouque et al. Nat. Protoc. 3 (2008) 427-434, and Rudi Pauwels et al. J. Virol. Methods 20 (1988) 309-321. Briefly, MT-4 cells infected with HIV-1 can only survive for 5 to 7 days without any treatment, but when HIV-1 inhibitors were added, they can protect MT-4 cell from cytopathic. Serial solution of compounds was added to MT-4 cells after infected with HIV-1, MTT method was used to detect the survival rate after culture for 5 to 7 days. EC50 value was defined as compound concentration required to achieve 50% protection of MT-4 cells against HIV-1-induced cytopathic effect. In vitro anti-HIV-1 assay was supported by Rega Institute for Medical Research.
(§2) • (1) MT-4 cells infected with HIV-1 viral strains (IIIB, L100I, K103N, Y181C, Y188L, E138K, F227L/V106A, Y181C/K103N) were provided by Rega Institute for Medical Research, Katholieke Universiteit Leuven, Belgium. • (2) MTT and formazan: sigma Chemical Co. • (3) Preparation of compounds: Stock solutions (10×final concentration) of test compounds is diluted with double distilled water for 5 folds and 5 concentrations of one compound are prepared. • (4) Reference drugs: Nevirapine (NVP), Efavirenz (EFV), Etravirine (ETV), Rilpivirine (RPV) and Azidothymidine (AZT). • (5) Method (MTT method): Serial five-fold dilutions of test compounds were added to cultured MT-4 cells infected with HIV-1, after 5 to 7 days, MTT was added and cultured for a few hours. Medium was removed and lysate was added followed by formazan, OD value was determined in 690 nm and 540 nm by microplate reader, and EC50 value was calculated. 2. Method
(§3) The MTT method was described briefly as follows: 96-well plastic microtiter trays were filled with 100 μL of complete medium. Subsequently, serial of tested compounds was added (25 μL) to two series of triplicate wells so as to allow simultaneous evaluation of their effects on HIV- and mock infected cells. 50 μL of 1×10^4 cells/mL MT-4 cells were added. After cultured for 5 days at 37° C. in humidified atmosphere in the presence of 5% CO2, MTT was added and cultured for another 2 h, then medium was removed and 100 μL isopropanol solution was added to lyse the cells. Formazan crystals were added and vibrated platform shaker for 10 min to solubilize the formazan crystals. Absorbances at 690 nm and 540 nm were read by using spectrophotometrically. EC50 was defined as the concentration achieving 50% protection from the cytopathic effect of the virus in infected cells.
(§4) Selected compounds prepared as described above were assayed in MT-4 cells infected with wide-type IIIB, L100I, K103N, Y181C, Y188L, E138K or double mutant RES056 (Y181C/K103N) and F227L/V106A HIV-1 strains. Nevirapine, Efavirenz, Etravirine, Rilpivirine and Azidothymidine were selected as reference drugs. The results were listed below as EC50 value (nM)

[2] = test system: HIV-1 L100I mutant strain; assay: Anti-HIV-1 activity in MT-4 cells (MTT method), L100I; details: for EC50: Human immunodeficiency virus 1, MT4, read-out: EC50 (nM) L100I
Protocol: as §1, §2, §3, §4

[3] = test system: HIV-1 K103N mutant strain; assay: Anti-HIV-1 activity in MT-4 cells (MTT method), K103N; details: for EC50: Human immunodeficiency virus 1, MT4, read-out: EC50 (nM) K103N
Protocol: as §1, §2, §3, §4

[4] = test system: HIV-1 Y181C mutant strain; assay: Anti-HIV-1 activity in MT-4 cells (MTT method), Y181C; details: for EC50: Human immunodeficiency virus 1, MT4, read-out: EC50 (nM) Y181C
Protocol: as §1, §2, §3, §4

[5] = test system: HIV-1 Y188L mutant strain; assay: Anti-HIV-1 activity in MT-4 cells (MTT method), Y188L; details: for EC50: Human immunodeficiency virus 1, MT4, read-out: EC50 (nM) Y188L
Protocol: as §1, §2, §3, §4

[6] = test system: HIV-1 E138K mutant strain; assay: Anti-HIV-1 activity in MT-4 cells (MTT method), E138K; details: Human immunodeficiency virus 1, MT4, read-out: EC50 (nM) E138K
Protocol: as §1, §2, §3, §4

[7] = test system: HIV-1 F227L/V106A double mutant strain; assay: Anti-HIV-1 activity in MT-4 cells (MTT method), F227L/V106A; details: for EC50: Human immunodeficiency virus 1, MT4, read-out: EC50 (nM) F227L/V106A
Protocol: as §1, §2, §3, §4

[8] = test system: HIV-1 double mutant RES056 (Y181C/K103N); assay: Anti-HIV-1 activity in MT-4 cells (MTT method), RES056; details: for EC50: Human immunodeficiency virus 1, MT4, read-out: EC50 (nM) Y181C/K103N
Protocol: as §1, §2, §3, §4

[9] = Human immunodeficiency virus 1, IIIB, MT4, read-out: EC50 (nM) wt

Row | Compound | EC50 ([1]; Human immunodeficiency virus 1, MT4, MT-4 cells, 50% protection against HIV-1-induced cytopathicity, wt (IIIB), read-out: EC50 (nM) wt) [nM] | EC50 [2] [nM] | EC50 [3] [nM] | EC50 [4] [nM] | EC50 [5] [nM] | EC50 [6] [nM] | EC50 [7] [nM] | EC50 [8] [nM] | EC50 [1, 9] [nM] | fold more potent than ETV against L100I ([2]; L100I, relative to ETV) [fold] | Activity against K103N compared with ETV ([3]; K103N, relative to ETV) | fold more potent than ETV against Y181C ([4]; Y181C, relative to ETV) [fold] | Activity against Y188L compared with ETV ([5]; Y188L, relative to ETV) | fold more potent than ETV against F227L/V106A ([7]; F227L/V106A, relative to ETV) [fold] | fold more potent than ETV against Y181C/K103N ([8]; Y181C/K103N, relative to ETV) [fold]
1 | O=C1Nc2ccc(Cl)cc2[C@@](C#CC2CC2)(C(F)(F)F)O1 [EFV, Efavirenz, reference compound] | < 10 | 10 to 100 | 10 to 100 | < 10 | 10 to 100 | < 10 | 10 to 100 | > 100 | – | – | – | – | – | – | –
2 | Cc1cc(C#N)cc(C)c1Oc1nc(Nc2ccc(C#N)cc2)nc(N)c1Br [ETV, Etravirine, reference compound] | – | < 10 | < 10 | 10 to 100 | 10 to 100 | 10 to 100 | 10 to 100 | 10 to 100 | < 10 | – | – | – | – | – | –
3 | Cc1cc(/C=C/C#N)cc(C)c1Oc1nc(Nc2ccc(C#N)cc2)nc2c1SCCC2 [IA-1-2, (E)-4-((4-(4-(2-cyanovinyl)-2,6-dimethylphenoxy)-7,8-dihydro-6H-thiopyrano[3,2-d]pyrimidin-2-yl)amino)benzonitrile] | – | < 10 | < 10 | 10 to 100 | 10 to 100 | 10 to 100 | 10 to 100 | 10 to 100 | < 10 | – | – | – | – | – | –
4 | Cc1cc(C#N)cc(C)c1Oc1nc(NC2CCN(Cc3ccc(S(N)(=O)=O)cc3)CC2)nc2c1SCCC2 [IIA-1-1, 4-((4-((4-(4-cyano-2,6-dimethylphenoxy)-7,8-dihydro-6H-thiopyrano[3,2-d]pyrimidin-2-yl)amino)piperidin-1-yl)methyl)benzenesulfonamide] | – | 10 to 100 | < 10 | 10 to 100 | < 10 | < 10 | 10 to 100 | 10 to 100 | < 10 | – | – | – | – | – | –
5 | Cc1cc(C)c(Oc2nc(NC3CCN(Cc4ccc(S(N)(=O)=O)cc4)CC3)nc3c2SCCC3)c(C)c1 [IIA-1-2, 4-((4-((4-(mesityloxy)-7,8-dihydro-6H-thiopyrano[3,2-d]pyrimidin-2-yl)amino)piperidin-1-yl)methyl)benzenesulfonamide] | – | 10 to 100 | < 10 | 10 to 100 | 10 to 100 | 10 to 100 | 10 to 100 | > 100 | < 10 | – | – | – | – | – | –
6 | Cc1cc(/C=C/C#N)cc(C)c1Oc1nc(NC2CCN(Cc3ccc(S(N)(=O)=O)cc3)CC2)nc2c1SCCC2 [IIA-1-3, (E)-4-((4-((4-(4-(2-cyanovinyl)-2,6-dimethylphenoxy)-7,8-dihydro-6H-thiopyrano[3,2-d]pyrimidin-2-yl)amino)piperidin-1-yl)methyl)benzenesulfonamide] | – | < 10 | < 10 | < 10 | 10 to 100 | 10 to 100 | < 10 | 10 to 100 | < 10 | 2 | comparable | 2 | comparable | 2 | 2
7 | Cc1cc(C#N)cc(C)c1Oc1nc(NC2CCN(Cc3cccc(S(N)(=O)=O)c3)CC2)nc2c1SCCC2 [IIA-1-4, 3-((4-((4-(4-cyano-2,6-dimethylphenoxy)-7,8-dihydro-6H-thiopyrano[3,2-d]pyrimidin-2-yl)amino)piperidin-1-yl)methyl)benzenesulfonamide] | – | > 100 | 10 to 100 | 10 to 100 | 10 to 100 | 10 to 100 | 10 to 100 | > 100 | < 10 | – | – | – | – | – | –
8 | Cc1cc(C#N)cc(C)c1Oc1nc(NC2CCN(Cc3ccc(C#N)cc3)CC2)nc2c1SCCC2 [IIA-1-5, 4-((2-((1-(4-cyanobenzyl)piperidin-4-yl)amino)-7,8-dihydro-6H-thiopyrano[3,2-d]pyrimidin-4-yl)oxy)-3,5-dimethylbenzonitrile] | – | 10 to 100 | 10 to 100 | 10 to 100 | 10 to 100 | 10 to 100 | > 100 | > 100 | < 10 | – | – | – | – | – | –
9 | Cc1cc(C#N)cc(C)c1Oc1nc(NC2CCN(Cc3cccc(C#N)c3)CC2)nc2c1SCCC2 [IIA-1-6, 4-((2-((1-(3-cyanobenzyl)piperidin-4-yl)amino)-7,8-dihydro-6H-thiopyrano[3,2-d]pyrimidin-4-yl)oxy)-3,5-dimethylbenzonitrile] | – | > 100 | 10 to 100 | 10 to 100 | 10 to 100 | 10 to 100 | > 100 | > 100 | < 10 | – | – | – | – | – | –
10 | Cc1cc(C#N)cc(C)c1Oc1nc(NC2CCN(Cc3ccccc3C#N)CC2)nc2c1SCCC2 [IIA-1-7, 4-((2-((1-(2-cyanobenzyl)piperidin-4-yl)amino)-7,8-dihydro-6H-thiopyrano[3,2-d]pyrimidin-4-yl)oxy)-3,5-dimethylbenzonitrile] | – | > 100 | 10 to 100 | 10 to 100 | > 100 | 10 to 100 | > 100 | > 100 | < 10 | – | – | – | – | – | –
11 | Cc1cc(C#N)cc(C)c1Oc1nc(NC2CCN(Cc3ccc(C(N)=O)cc3)CC2)nc2c1SCCC2 [IIA-1-8, 4-((4-((4-(4-cyano-2,6-dimethylphenoxy)-7,8-dihydro-6H-thiopyrano[3,2-d]pyrimidin-2-yl)amino)piperidin-1-yl)methyl)benzamide] | – | 10 to 100 | < 10 | 10 to 100 | 10 to 100 | 10 to 100 | > 100 | 10 to 100 | < 10 | – | – | – | – | – | –
12 | Cc1cc(C#N)cc(C)c1Oc1nc(NC2CCN(Cc3cccc(C(N)=O)c3)CC2)nc2c1SCCC2 [IIA-1-9, 3-((4-((4-(4-cyano-2,6-dimethylphenoxy)-7,8-dihydro-6H-thiopyrano[3,2-d]pyrimidin-2-yl)amino)piperidin-1-yl)methyl)benzamide] | – | 10 to 100 | 10 to 100 | 10 to 100 | 10 to 100 | 10 to 100 | > 100 | > 100 | < 10 | – | – | – | – | – | –
13 | CCOC(=O)c1ccc(CN2CCC(Nc3nc4c(c(Oc5c(C)cc(C#N)cc5C)n3)SCCC4)CC2)cc1 [IIA-1-10, ethyl 4-((4-((4-(4-cyano-2,6-dimethylphenoxy)-7,8-dihydro-6H-thiopyrano[3,2-d]pyrimidin-2-yl)amino)piperidin-1-yl)methyl)benzoate] | – | > 100 | 10 to 100 | > 100 | > 100 | > 100 | > 100 | > 100 | 10 to 100 | – | – | – | – | – | –
14 | Cc1cc(C#N)cc(C)c1Oc1nc(NC2CCN(Cc3ccc(S(C)(=O)=O)cc3)CC2)nc2c1SCCC2 [IIA-1-11, 3,5-dimethyl-4-((2-((1-(4-(methylsulfonyl)benzyl)piperidin-4-yl)amino)-7,8-dihydro-6H-thiopyrano[3,2-d]pyrimidin-4-yl)oxy)benzonitrile] | – | 10 to 100 | < 10 | 10 to 100 | 10 to 100 | 10 to 100 | 10 to 100 | 10 to 100 | < 10 | – | – | – | – | – | –
